Laboratory results taken from patent US20090149453A1, “METHODS AND COMPOSITIONS FOR TREATING BACTERIAL INFECTIONS AND DISEASES ASSOCIATED THEREWITH” (ACTIVBIOTICS PHARMA LLC, priority 2002, published 2009).
In brackets after ≈: the same amount, converted by molar mass. Entries after “also recorded” stand apart in the source; their conditions may differ. Like-named read-outs stand apart in the source and are kept apart here.

Legend:
Assay type in all cases: cell-based, Staphylococcus aureus
[1] = test system: S. aureus strain ATCC 29213, log-phase; assay: Viability (cfu/ml) of log-phase cultures exposed to drugs, plated on non-selective MHA; conditions: for decrease in cfu/ml: drug alone: Rif 0.1 μg/ml (initial drop), Van 10 μg/ml
[2] = test system: S. aureus strain ATCC 29213, log-phase
Method: In order to characterize the population of the cultures shown in FIG. 1, aliquots at the various time points/treatments were tested for the presence of Rif-resistant mutants.
Cultures were also examined as described above for the number of cfu/ml present that were resistant to Rif (FIG. 4).
(§1) For log-phase studies, cells were grown to an optical density of 0.5 at 600 nm, which represents a culture density of 5×10^8 colony forming units (cfu)/ml for S. aureus and deviates from densities typically used in time-kill type assays (1×10^7 cfu/ml). We chose to start at a higher density because this density is more likely to reflect in vivo bioburden than lower starting densities. In addition, this starting density is critical for monitoring the emergence of ansamycin-resistant mutants because it insures that there is a starting resident population of such resistant mutants at the start of the experiment. The 10^−8 frequency of mutants to Rfz leads to a theoretical number of five mutants per ml of culture at this cell density.
(§2) For stationary phase studies, cultures were grown to an optical density of 2.2 to 2.4 at 600 nm, which represents approximately 5×10^9 cfu/ml; there would exist approximately 50 resistant mutants per nil in such a stationary phase culture. Drugs were added to the cultures to start the experiment, and then aliquots were removed at various time points, diluted in MHB if appropriate, and applied to 100 mm MHA and MHA plates containing Rif at 1 μg/ml. These plates were incubated at 35° C. for 18-24 hours, and then colonies manually counted to determine the number of cfu per nil of culture for the specific time-point/treatment. […] The Rif-containing plates were used to determine the number of Rfz-resistant bacteria present in the cultures for the specific time-point/treatment. Untreated control cultures were included in each experiment.

[3] = test system: S. aureus 29213, stationary-phase; assay: Viability (cfu/ml) of stationary-phase cultures exposed to drugs; conditions: for killing effect against stationary phase cultures (summary, words): stationary phase (non-multiplying), alone or in combination; for log killing of stationary-phase cultures: summary, over 48 hours, single drugs or combination
Method: Cultures of S. aureus 29213 were grown to stationary-phase (an OD of 2.2 to 2.4 at 600 nm), then treated with Van and Rfz, either alone or in combination (FIG. 5; concentrations listed are in μg/ml). Rfz was used at 0.1 μg/ml, while Van was used at 15 μg/ml and 30 μg/ml, the latter concentration based on the fact that the starting culture was at a much higher density than was the log-phase cultures used in the experiments described above. It was assumed that more Van might be required to give a prolonged killing effect. In addition, one culture was treated with 15 μg/ml Van at the start of the experiment and then again 24 hours later. At 0, 24 and 48 hours, the number of viable cells was determined by plating on non-selective medium as described above.
The bacterial strain used in this study was “wild-type” S. aureus strain ATCC 29213. The strain was grown in Mueller Hinton II Broth (MHB; cationadjusted; VWR) and on Mueller Hinton Agar (MHA; VWR) plates that were made according to the manufacturer's instructions. Van (Calbiochem) was resuspended in sterile water (Fisher) at 10 mg/ml, while Rif (Calbiochem) and Rfz (ActivBiotics) were resuspended in 100% DMSO (J. T. Baker) at 1 mg/ml. All drugs were stored at −80° C. in single-use aliquots.
S. aureus strain ATCC 29213 was grown on an MHA plate at 35° C. for 18 hours. Colonies (3-5) were used to inoculate 50-100 ml of cation-adjusted MHB in a 500 ml Ehrlenmeyer flask and grown at 37° C. in a water bath shaker at 240 rpm.
as §2

[4] = test system: S. aureus 29213, stationary-phase; assay: Rif-resistant cfu/ml in drug-treated stationary-phase cultures; conditions: Example 3, stationary-phase, Van or Rfz alone; Van 15 μg/ml plus Rfz 0.1 μg/ml
Method: The emergence of Rif/Rfz-resistant cells in cultures in these experiments was monitored as previously described; the results are shown in FIG. 6.
as §2

S. aureus 29213 = assay: MIC testing according to NCCLS standard; conditions: S. aureus 29213, NCCLS standard MIC testing
S. aureus = assay: Frequency of resistant mutants; conditions: resistance to Rfz
Method: as §1

CN[C@H](CC(C)C)C(=O)N[C@H]1C(=O)N[C@@H](CC(N)=O)C(=O)N[C@H]2C(=O)N[C@H]3C(=O)N[C@H](C(=O)N[C@H](C(=O)O)c4cc(O)cc(O)c4-c4cc3ccc4O)[C@H](O)c3ccc(c(Cl)c3)Oc3cc2cc(c3O[C@@H]2O[C@H](CO)[C@@H](O)[C@H](O)[C@H]2O[C@H]2C[C@](C)(N)[C@H](O)[C@H](C)O2)Oc2ccc(cc2Cl)[C@H]1O [Van, vancomycin, reference compound]
decrease in cfu/ml ([1]; Example 1, log-phase): 0.5 log
significant killing ([1]; log-phase dense cultures, Van alone, after 48 hours of treatment): 3 logs
killing effect at increased concentration ([1]; log-phase, vancomycin alone 15 μg/ml): sufficient for sustained killing
emergence of Rif-resistant cells ([2]; Example 1, log-phase, Van 10 μg/ml alone or with Rif/Rfz 0.1 μg/ml): little or no increase in the number of Rif-resistant cells
viability of the cultures during treatment ([3]; Example 3, stationary-phase, Van alone 15 or 30 μg/ml): did not decrease significantly
killing effect against stationary phase cultures (summary, words) [3]: little or no killing effect
log killing of stationary-phase cultures [3]: approximately 1 log
emergence of Rif/Rfz-resistant colonies [4]: Resistant colonies did not appear

CO[C@H]1/C=C/O[C@@]2(C)Oc3c(C)c(O)c4c(O)c(c(/C=N/N5CCN(C)CC5)c(O)c4c3C2=O)NC(=O)/C(C)=C\C=C\[C@H](C)[C@H](O)[C@@H](C)[C@@H](O)[C@@H](C)[C@H](OC(C)=O)[C@@H]1C [Rif, rifampicin, reference compound]
MIC (S. aureus 29213; Staphylococcus aureus, read-out: MIC): 0.015 µg/mL (≈ 0.0182 µM)
decrease in cfu/ml ([1]; Example 1, log-phase): ~2.5 log
Rif-resistant cfu [2]: 8 logs

3′-hydroxy-5′-(4-isobutyl-1-piperazinyl) benzoxazinorifamycin [Rfz]
MIC (S. aureus 29213): 0.015 µg/mL
drop in cfu/ml (logs killed) ([1]; Example 1, log-phase, 0.1 μg/ml alone, in 4 hours): approximately 3.5 logs
reduction of cfu/ml of the culture (cidality) ([1]; Example 2, log-phase, Rfz 0.1 μg/ml (6.5× MIC) alone, within 6 hours): approximately 3 logs
cfu/ml level after regrowth ([1]; Example 2, log-phase, Rfz alone 0.1 or 0.025 μg/ml, over 48 hours): approximately 10×10^8 cfu/ml
reduction of cfu/ml at the lower concentration compared to the higher ([1]; log-phase, Rfz 0.025 μg/ml (1.6× MIC) vs 0.1 μg/ml (6.5× MIC)): just as effective; also recorded: as effective as 6.5× the MIC levels
Rif-resistant cfu ([2]; Example 1, log-phase, 0.1 μg/ml alone, in 24 hours): 8 logs
appearance of Rif-resistant cfu in log-phase cultures (summary, words) ([2]; log-phase, Rfz single agent or co-treatment with Van): dramatic increase in Rif-resistant cfu/ml within 10 hours
decrease of cfu ([3]; Example 3, stationary-phase, Rfz 0.1 μg/ml alone): about 1 log
killing effect against stationary phase cultures (summary, words) [3]: little or no killing effect
log killing of stationary-phase cultures [3]: approximately 1 log
emergence of Rif/Rfz-resistant colonies [4]: Resistant colonies did not appear
frequency of mutants (S. aureus): 10^−8
